Data from US7541341B2, “Glucopyranosyloxybenzylbenzene derivatives and medicinal use thereof” (Kissei Pharmaceutical Co., Ltd., priority 2001, dated 2009).

Tests used:
SD rats = experiment: Assay for the facilitatory effect on urinary glucose excretion; type: in vivo; conditions: fasted male SD rats, sucrose 2.5 g/kg load, 24 hours urine
Protocol: Assay for the Facilitatory Effect on Urinary Glucose Excretion
As experimental animals, overnight fasted SD rats (Japan SLC. Inc., male, 7-8 weeks of age, 205-272 g) were used. A Test compound was suspended in 0.5% sodium carboxymethylcellulose solution at the concentration of 2 mg/mL. When a homogenous suspension was not obtained in this condition, the test compound was dissolved in ethanol at the concentration of 100 mg/mL of its active form and then 2 mg/mL suspension was obtained by adding this solution to 49 times volumes of 0.5% sodium carboxymethylcellulose solution. Apart of this suspension was diluted with 0.5% sodium carboxymethylcellulose solution and then 0.6 and 0.2 mg/mL suspensions were prepared. After the body weights of rats were measured, the test suspension was orally administered at the dose of 5 mL/kg (1, 3 and 10 mg/kg). For control, just only 0.5% sodium carboxymethylcellulose solution was orally administered at the dose of 5 mL/kg. Immediately after this oral administration, 500 g/L sucrose solution was orally administered at the dose of 5 mL/kg (2.5 g/kg). The oral administration was performed with gastric tube for rat and 2.5 mL syringe. The head count in one group was 3. Collection of urine was performed in metabolic cage after the sucrose administration was finished. The sampling time for collection of urine was 24 hours after the sucrose administration. After collection of urine was finished, the urine volume was recorded and the urinary glucose concentration was measured. The glucose concentration was measured with a kit for laboratory test: Glucose B-Test WAKO (Wako Pure Chemical Industries, Ltd.). The amount of urinary glucose excretion in 24 hours per 200 g of body weight was calculated from urine volume, urinary glucose concentration and body weight.

SD rat = experiment: Acute toxicity test; type: in vivo; conditions: oral 1000 mg/kg; male SD rat, 5 animals in each group; observation for 24 hours
Protocol: A 100 mg/mL suspension was prepared by adding 0.5% sodium carboxymethylcellulose solution to a test compound. Five week old male SD rat (CLEA JAPAN, INC., 124-128 g, 5 animals in each group) were used as test animals after fasted overnight. The above-mentioned suspension was orally administered at the dose 10 mL/kg (1000 mg/kg) to the test animals, and observation was performed for 24 hours.

human SGLT2 = target: T1, human SGLT2 (Homo sapiens, UniProt P31639, I433V); experiment: Assay for inhibitory effect on human SGLT2 activity (uptake of methyl-α-D-glucopyranoside in COS-7 cells transiently expressing human SGLT2); type: cell-based; conditions: methyl-α-D-(U-14C)glucopyranoside uptake, 37° C., 2 hours
T1 construct: expressed in transfected cells; host or cells: COS-7 cells (RIKEN CELL BANK RCB0539), transient, electroporation of KL29
T1 sequence (P31639 1-672 I433V): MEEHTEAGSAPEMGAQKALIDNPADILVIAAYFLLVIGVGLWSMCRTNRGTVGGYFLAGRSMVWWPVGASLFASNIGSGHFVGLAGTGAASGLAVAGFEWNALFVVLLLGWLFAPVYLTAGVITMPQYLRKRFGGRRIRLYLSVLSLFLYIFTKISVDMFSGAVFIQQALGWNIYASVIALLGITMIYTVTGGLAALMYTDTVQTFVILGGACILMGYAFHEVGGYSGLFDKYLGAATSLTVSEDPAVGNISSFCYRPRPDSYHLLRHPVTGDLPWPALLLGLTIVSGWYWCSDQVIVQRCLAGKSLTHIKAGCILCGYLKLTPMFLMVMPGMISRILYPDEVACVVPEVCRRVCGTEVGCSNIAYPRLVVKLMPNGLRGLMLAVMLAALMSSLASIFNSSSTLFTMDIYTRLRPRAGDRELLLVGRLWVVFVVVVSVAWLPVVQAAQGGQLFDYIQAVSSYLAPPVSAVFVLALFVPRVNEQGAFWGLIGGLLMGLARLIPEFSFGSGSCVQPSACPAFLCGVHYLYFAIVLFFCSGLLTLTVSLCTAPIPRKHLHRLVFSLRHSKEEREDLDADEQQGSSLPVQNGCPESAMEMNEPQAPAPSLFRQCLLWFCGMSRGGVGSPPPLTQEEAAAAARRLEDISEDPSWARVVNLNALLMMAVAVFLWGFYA
Protocol: Assay for Inhibitory Effect on Human SGLT2 Activity
1) Construction of the Plasmid Vector Expressing Human SGLT2
Preparation of the cDNA library for PCR amplification was performed by reverse transcription of a total RNA deprived from human kidney (Ori gene) with oligo dT as the primer, using […] Preamplification System (Gibco-BRL: LIFE TECHNOLOGIES). The DNA fragment coding for human SGLT2 was amplified by the PCR reaction, in which the human kidney cDNA library described above was used as the template and the following oligo nucleotides 0702F and 0712R, presented as SEQ ID NO:1 and SEQ ID NO:2 respectively, were used as the primers. The amplified DNA fragment was ligated into pCR-Blunt (Invitrogen), a vector for cloning, according to standard method of the kit. The Escherichia coli HB101 was transformed according to usual method and then selection of the transformants was performed on the LB agar medium containing 50 μg/mL of kanamycin. […] After plasmid DNA was extracted and purified from this transformant, the base sequence of the DNA fragment inserted at the multi-cloning sites of the vector pcDNA3.1 (−) Myc/His-B was analyzed. […]

| Structure (SMILES) | Amount of urinary glucose excretion (SD rats; oral dose 1 mg/kg) | Amount of urinary glucose excretion (SD rats; oral dose 3 mg/kg) | Amount of urinary glucose excretion (SD rats; oral dose 10 mg/kg) | Number of death (SD rat) | IC50 (human SGLT2) [nM] |
| --- | --- | --- | --- | --- | --- |
| CCOC(=O)OC[C@H]1O[C@@H](Oc2cc(CO)ccc2Cc2ccc(CC)cc2)[C@H](O)[C@@H](O)[C@@H]1O [Example 1, 2-(4-Ethylbenzyl)-5-hydroxymethylphenyl 6-O-ethoxycarbonyl-β-D-glucopyranoside] | 7.0 mg/24 hours/200 g body weight | 82.1 mg/24 hours/200 g body weight | 195.8 mg/24 hours/200 g body weight | 0/5 |  |
| CC(=O)OCCc1ccc(Cc2ccccc2O[C@@H]2O[C@H](COC(C)=O)[C@@H](O)[C@H](O)[C@H]2O)cc1 [Example 40, 2-[4-(2-Acetoxyethyl)benzyl]phenyl 6-O-acetyl-β-D-glucopyranoside] | 0.0 mg/24 hours/200 g body weight | 4.1 mg/24 hours/200 g body weight | 55.9 mg/24 hours/200 g body weight |  |  |
| OCC=Cc1ccc(Cc2ccccc2OC2OC(CO)C(O)C(O)C2O)cc1 [Reference Example 49, (E)-2-[4-(3-Hydroxy-1-prop-1-en-1-yl)benzyl]phenyl β-D-glucopyranoside] |  |  |  |  | 120 |
